The target of assay [1] is wild-type βGT (Enterobacteria phage T4, UniProt P04547).
Assay [2] addresses T1, TaqαI (Thermus aquaticus, UniProt P14386).
T1 sequence (P14386 1-263): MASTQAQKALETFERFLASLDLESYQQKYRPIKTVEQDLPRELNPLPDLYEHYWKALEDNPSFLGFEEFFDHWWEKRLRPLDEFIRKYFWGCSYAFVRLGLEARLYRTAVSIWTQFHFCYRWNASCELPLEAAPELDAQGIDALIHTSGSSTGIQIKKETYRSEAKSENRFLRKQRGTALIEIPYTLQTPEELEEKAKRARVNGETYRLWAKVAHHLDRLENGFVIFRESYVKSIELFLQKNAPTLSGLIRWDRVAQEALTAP
In words: TaqαI digestion of 32-mer dsDNA with T*CGA. To be noted: 100 U TaqαI, 1 hr, 65° C.

For assay [3], the target named is T2, Taq polymerase (Thermus aquaticus, UniProt P19821).
T2 construct: purchased Sigma
T2 sequence (P19821 whole entry): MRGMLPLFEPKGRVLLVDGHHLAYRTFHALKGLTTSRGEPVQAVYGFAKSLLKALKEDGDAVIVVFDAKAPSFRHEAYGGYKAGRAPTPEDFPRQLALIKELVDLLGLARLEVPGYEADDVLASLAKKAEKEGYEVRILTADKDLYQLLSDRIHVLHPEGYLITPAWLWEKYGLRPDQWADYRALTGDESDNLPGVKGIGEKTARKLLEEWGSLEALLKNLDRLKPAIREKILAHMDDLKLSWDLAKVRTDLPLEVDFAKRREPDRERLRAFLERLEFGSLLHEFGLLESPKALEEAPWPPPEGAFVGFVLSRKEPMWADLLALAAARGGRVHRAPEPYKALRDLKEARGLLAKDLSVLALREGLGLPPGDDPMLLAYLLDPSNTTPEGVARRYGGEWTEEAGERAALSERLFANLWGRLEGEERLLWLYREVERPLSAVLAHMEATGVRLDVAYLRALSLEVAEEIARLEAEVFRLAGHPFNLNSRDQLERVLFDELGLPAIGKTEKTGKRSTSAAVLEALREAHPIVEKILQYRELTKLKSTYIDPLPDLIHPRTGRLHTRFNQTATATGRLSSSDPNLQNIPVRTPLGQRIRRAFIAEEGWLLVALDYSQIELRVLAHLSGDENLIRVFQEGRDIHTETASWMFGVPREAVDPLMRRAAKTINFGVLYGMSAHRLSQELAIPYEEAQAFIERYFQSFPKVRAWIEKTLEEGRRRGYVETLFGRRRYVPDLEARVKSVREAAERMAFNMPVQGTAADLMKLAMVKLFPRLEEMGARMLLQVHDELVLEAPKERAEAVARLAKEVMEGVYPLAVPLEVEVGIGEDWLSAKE
In words: Primer extension assay on 40-mer DNA template. The class given is biochemical. The note with it: streptavidin added (6 eq.-48 eq.), 72° C., 1 min. From the text: FIGS. 9A-9B. The streptavidin adduct of biotin-5-N3-gmC hinders primer extension. (A) Sequence of 40 mer DNA containing cytosines derivatives used in primer extension. Cytosine 25, counting from right to left, with an asterisk presented the modified cytosines in the sequences, and also the position at which DNA polymerases tended to stall when the streptavidine adduct of biotin-5-N3-gmC-containing DNA was used as template. The arrow corresponded to the reverse PCR primer used for primer extension. (B) Primer extension assays for 40 mer DNA containing different cytosine species, shown beside a Sanger sequencing ladder. […] Position with the most significant stalling was position 24, one base before the modified position, although significant stalling still observed in the modified position (position 25, arrow). Primer extension using Sigma TaqRED polymerase, extension at 72° C. for 1 min. Sequencing ladder was performed with Sequenase from USB.
The properties of 5-hmC in duplex DNA are quite similar to those of 5-mC in terms of its sensitivity toward enzymatic reactions such as restriction enzyme digestion and polymerization (Flusberg et al., 2010; Josse and Kornberg, 1962; Lariviere and Morera, 2004). In an attempt to develop a method to differentiate these two bases in DNA, primer extension with a biotin-N3-5-gmC-modified DNA template was tested. […]

The target of assay [4] is T3, MspI (Moraxella sp, UniProt P11405). In words: MspI digestion of 32-mer dsDNA with C*CGG. To be noted: 100 U MspI, 1 hr, 37° C.
T3 sequence (P11405 whole entry): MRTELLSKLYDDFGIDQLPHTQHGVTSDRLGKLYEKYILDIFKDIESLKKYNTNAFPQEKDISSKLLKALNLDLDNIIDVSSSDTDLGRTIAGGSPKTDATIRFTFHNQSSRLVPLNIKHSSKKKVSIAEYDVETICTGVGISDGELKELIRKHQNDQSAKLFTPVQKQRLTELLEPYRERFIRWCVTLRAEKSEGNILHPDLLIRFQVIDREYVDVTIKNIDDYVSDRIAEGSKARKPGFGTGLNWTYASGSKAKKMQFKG
Assay [5] deals with HpaII (Haemophilus parainfluenzae, UniProt P36433). The class given is biochemical. To be noted: 40-mer DNA.
HpaII, sequence (P36433 whole entry, looked up): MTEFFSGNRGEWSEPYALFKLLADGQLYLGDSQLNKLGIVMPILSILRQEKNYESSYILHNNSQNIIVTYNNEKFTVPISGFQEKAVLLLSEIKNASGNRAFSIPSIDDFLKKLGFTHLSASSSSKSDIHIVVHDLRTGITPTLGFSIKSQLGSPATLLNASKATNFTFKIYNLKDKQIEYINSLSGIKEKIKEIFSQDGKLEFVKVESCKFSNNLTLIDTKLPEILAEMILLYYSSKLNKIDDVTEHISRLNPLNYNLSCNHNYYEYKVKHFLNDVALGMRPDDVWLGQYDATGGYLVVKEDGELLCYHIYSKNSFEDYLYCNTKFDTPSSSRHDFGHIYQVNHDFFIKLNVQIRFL
Assay [6] deals with four different polymerases. In words: Primer extension and PCR with 5-gmC-containing DNA. The class given is biochemical. From the text:
The inventors synthesized the phosphoramidite of 5-hmC (now commercially available from Glen Research) and prepared duplex DNA with 5-hmC incorporated at specific locations.

For assay [7], the target named is T3, MspI. In words: MspI restriction digestion of 40-mer DNA with CC*GG. To be noted: 40-mer duplex DNA. The class given is biochemical. From the text:
FIG. 2. Restriction enzyme digestion assay of a 40 mer DNA with CC*GG (where C*=C, 5-meC, 5-hmC, or 5-gmC).
The inventors tested a restriction enzyme digestion assay with a 40-mer DNA containing a CC*GG (C*=C, 5-meC, 5-hmC, or 5-gmC) sequence in the middle. […] With bulkier groups on 5-hmC, digestions by other restriction enzymes that recognize DNA sequences containing CpG can be blocked.

wild-type βGT, sequence (P04547 with tags, fused parts or gaps): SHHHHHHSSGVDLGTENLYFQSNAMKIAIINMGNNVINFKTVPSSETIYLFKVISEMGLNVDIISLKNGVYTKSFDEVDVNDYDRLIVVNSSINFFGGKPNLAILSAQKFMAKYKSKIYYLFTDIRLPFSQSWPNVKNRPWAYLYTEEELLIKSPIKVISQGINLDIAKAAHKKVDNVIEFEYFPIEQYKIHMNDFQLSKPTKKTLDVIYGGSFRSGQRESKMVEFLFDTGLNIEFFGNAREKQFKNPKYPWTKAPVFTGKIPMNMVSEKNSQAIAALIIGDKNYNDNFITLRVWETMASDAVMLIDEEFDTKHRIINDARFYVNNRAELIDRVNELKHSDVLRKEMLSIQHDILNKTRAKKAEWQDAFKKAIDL

For the substance “Uridine 5′-(2,3,4-tri-O-acetyl-6-azido-6-deoxy-α-D-glucopyranosyl)diphosphate bistriethylammonium salt [UDP-6-N3-Glu]”, the “efficiency of transfer to 5-hmC-containing duplex DNA relative to UDP-Glu” value in assay [1] is “as efficiently as with UDP-Glu”. In addition, the “time for 6-N3-glucose transfer reaction to finish” value in assay [1] (11-mer duplex DNA with 5-hmC, as low as 1% enzyme concentration) was no more than 5 min.
“β-6-azide-glucosyl-5-hydroxymethyl-cytosine [N3-5-gmC]”: the “TaqαI digestion, hemi-modified DNA” value in assay [2] (hemi-hydroxymethylation) is reported as “cannot block digestion as well as the fully-modified one”. In addition, the “TaqαI digestion, fully-modified DNA” value in assay [2] (modified on both strands) is “only partially”. Also, in assay [3], the “primer extension on modified template with streptavidin” value was “completely stalled”. In assay [4], the “MspI digestion, fully-modified DNA” value was “block MspI digestion completely” and the “MspI digestion, hemi-modified DNA” value was “can be protected from digestion”.
Take “β-glucosyl-5-hydroxymethyl-cytosine [5-gmC]”: the “HpaII cutting of modified CC*GG site” value in assay [5] is “does not cut”. In assay [6], the “interference with polymerization reaction” value is “does not exhibit any interference”. The “MspI cutting of modified CC*GG site” value in assay [7] is on record as “completely blocks”; in assay [7] (listed as C(5-gmC)GG) it was “completely blocked”.

These data come from US8741567B2, “Composition and methods related to modification of 5-hydroxymethylcytosine (5-hmC)” (The University of Chicago, priority 2010, dated 2014).
